Literature values in patent US20060083727A1, “Methods and compositions for the treatment of diseases characterized by calcification and/or plaque formation” (Nanobac Pharmaceuticals, Inc., priority 2004, published 2006).

Tested on: NB/CNP
Conditions: background statement

Compound: O=C(O)CN(CCN(CC(=O)O)CC(=O)O)CC(=O)O [EDTA, Ethylenediaminetetraacetic acid]
- Effect on protective biofilm secreted by NB/CNP: can assist in dissolving the protective biofilm

Compound: Penicillin
- Killing / sensitivity of NB/CNP: cannot be killed
